# Test results published in patent US20260132123A1, “ABAD INHIBITOR COMPOUNDS” (UNIVERSITY COURT OF THE UNIVERSITY OF ST ANDREWS, priority 2021, published 2026).
# Columns and labels:
# [1] = tested on: mtsABAD HEK293 cells; test: Alamar Blue cell viability assay; assay type: cell-based, human; conditions: 50 μM compound
# Method: Cell viability was assessed via fluorescence change using the commercially available Alamar Blue from ThermoFisher. HEK293 cells overexpressing mts17β-HSD10 were cultured in phenol-red free media (10% FBS, 1 mM sodium pyruvate, 100 units penicillin, 0.1 mg/mL streptomycin and 2 mM L-glutamine) and seeded at a density of 10,000 cells per well (100 μL, 96 well plates). […] Treated cells were then incubated at 37° C. and CO2 (5%) for 24 hours before the assay was performed as per the manufacturer's instructions. Fluorescence was measured at 530 nm excitation and 590 nm emission using a SpectraMaxM2e spectrophotometer.
# [2] = target: T1, 17β-HSD10 (Homo sapiens, UniProt Q99714); test: 17β-HSD10 (ABAD) enzyme inhibition assay, NADH oxidation read at 340 nm (primary screen and dose response); assay type: biochemical; conditions: recombinant 17βHSD10 enzyme assay; for Hill Slope / Max. Fit / Min. Fit: curve fit
# T1 construct: Histev (histidine tag with TEV site) (N, cleaved yes); made in house; host or cells: E. coli BL21-CodonPlus
# T1 sequence (Q99714 1-261): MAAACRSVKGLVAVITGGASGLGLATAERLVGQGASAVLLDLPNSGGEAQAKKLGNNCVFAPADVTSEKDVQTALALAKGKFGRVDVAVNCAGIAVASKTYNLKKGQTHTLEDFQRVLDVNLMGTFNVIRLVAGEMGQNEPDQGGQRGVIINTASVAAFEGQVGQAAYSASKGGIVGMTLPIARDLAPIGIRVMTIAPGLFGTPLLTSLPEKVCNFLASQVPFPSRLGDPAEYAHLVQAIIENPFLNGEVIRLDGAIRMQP
# Summary of the method: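 Tag-cleaved recombinant human 17β-HSD10 (2.5 nM) preincubated 15 min with compound in Tris pH 7.4, NaCl, DTT, Tween, BSA (catalase in some runs), then 100 μM acetoacetyl-CoA and NADH added. NADH oxidation by A340 fall: 35 min endpoint for screening at 10 μM; continuous 45 min for dose response.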
# [3] = tested on: mtsABAD HEK293 cells; test: Lactate dehydrogenase (LDH) cytotoxicity assay; assay type: cell-based, human; conditions: 50 μM compound
# Method: Cell cytotoxicity was assessed via the measurement of lactate dehydrogenase leakage into the culture medium using a commercially available kit from Pierce (Thermo Scientific cat no. 88953). This was carried out in accordance with the kit guidelines, with the activity of Lactate Dehydrogenase (LDH) being calculated from the change in absorbance at […] as NADH is reduced. HEK293 cells overexpressing mts17β-HSD10 were cultured in phenol-red free media (10% fetal bovine serum (FBS), 1 mM sodium pyruvate, 100 units penicillin, 0.1 mg/mL streptomycin and 2 mM L-glutamine) and seeded at a density of 10,000 cells per well (100 μL, 96 well plates). […] Treated cells were incubated at 37° C. and CO2 (5%) for 24 hours before the LDH assay was performed as per the manufacturer's instructions. Spontaneous control (water) and maximum control (lysis buffer) used in accordance with the kit guide. Absorbance was measured at 490 nm and 680 nm using a SpectraMaxM2e spectrophotometer. The measured LDH activity was used to calculate % cytotoxicity using the following equation: […]
EC50 [2] [nM],Max. Effect (%) [2] [%],Hill Slope [2],Max. Fit [2],Min. Fit [2],SMILES,Alamar Blue % Viability (50 μM Dose) [1] [%],LDH % Toxicity (50 μM Dose) [3] [%]
> 20000,50,–,–,–,CC(C)CN(C(=O)c1ccccc1F)c1cccc(N(C)Cc2cncs2)c1 [ESC1002208],65.577,20.084
5750,80,0.98,104,0,CC(C)CN(C(=O)c1ccccc1F)c1cccc(N(C)Cc2ccccn2)c1 [ESC1002209],80.514,5.698
6170,72,1.4,82,0,CC(C)CN(C(=O)c1ccccc1F)c1cccc(N(C)Cc2cccnc2)c1 [ESC1002210],93.200,5.509
> 20000,40,–,–,–,CC(C)CN(C(=O)c1ccccc1F)c1cccc(N(C)Cc2ccncc2)c1 [ESC1002211],82.553,5.501
> 20000,16,–,–,–,CC(C)CN(C(=O)c1ccccc1F)c1cccc(N(C)Cc2ccc(O)nc2)c1 [ESC1002212],94.278,5.576
> 20000,15,–,–,–,CCc1ccc(CN(C)c2cccc(N(CC(C)C)C(=O)c3ccccc3F)c2)cn1 [ESC1002213],81.860,8.010
> 20000,22,–,–,–,CC(C)CN(C(=O)c1ccccc1F)c1cccc(N(C)Cc2cn3ccccc3n2)c1 [ESC1002214],82.439,5.902
1480,94,0.96,101,−3,"CCN(C(=O)c1ccccc1F)c1cccc(N(C)Cc2cnc[nH]2)c1 [ESC1002234, N-ethyl-2-fluoro-N-[3-[1H-imidazol-5-ylmethyl(methyl)amino]phenyl]benzamide]",86.98,4.81
2950,85,1.1,93,−3,"CCCC(=O)N(CC(C)C)c1cccc(N(C)Cc2cnc[nH]2)c1 [ESC1002235, N-[3-[1H-imidazol-5-ylmethyl(methyl)amino]phenyl]-N-isobutyl-butanamide]",84.09,5.54
> 20000,30,–,–,–,"CC(C)CN(C(=O)c1ccccc1F)c1ccc2c(c1)N(Cc1cnc[nH]1)CCC2 [ESC1002236, 2-fluoro-N-[1-(1H-imidazol-5-ylmethyl)-3,4-dihydro-2H-quinolin-7-yl]-N-isobutyl-benzamide]",82.69,3.94
955,96,1.1,99,0,CN(Cc1c[nH]cn1)c1cccc(N(CC2CCC2)C(=O)c2ccccc2F)c1 [ESC1002265],80.52,4.52
6460,74,0.98,100,−4,"COCCN(C(=O)c1ccccc1F)c1cccc(N(C)Cc2c[nH]cn2)c1 [ESC1002266, 2-fluoro-N-[3-[1H-imidazol-4-ylmethyl(methyl)amino]phenyl]-N-(2-methoxyethyl)benzamide]",89.86,5.22
6030,76,0.9,103,−4,CC(C)OCCN(C(=O)c1ccccc1F)c1cccc(N(C)Cc2c[nH]cn2)c1 [ESC1002267],89.57,4.81
575,99,1.2,97,0,Cc1ccsc1C(=O)N1CCC[C@H]1c1ccccc1-c1ccc(C(F)(F)F)cc1 [ESC1002314],87.10,5.98
1150,95,1.1,97,0,Cc1ccsc1C(=O)N1CCC[C@H]1c1ccccc1-c1ccc(OC(F)(F)F)cc1 [ESC1002315],84.77,5.91
275,101,0.93,100,0,Cc1ccsc1C(=O)N1CCC[C@H]1c1ccccc1-c1ccc(C#N)cc1 [ESC1002316],80.39,3.69
912,96,1,99,0,Cc1ccsc1C(=O)N1CCC[C@H]1c1ccccc1-c1ccc(C(=O)N(C)C)cc1 [ESC1002317],83.39,4.58
1910,91,1.1,98,−1,Cc1ccsc1C(=O)N1CCC[C@H]1c1ccccc1-c1ccc(N2CCOCC2)cc1 [ESC1002318],85.76,2.55
5890,79,1,101,−2,Cc1ccsc1C(=O)N1CCC[C@H]1c1ccccc1-c1ccc(S(C)(=O)=O)cc1 [ESC1002319],82.10,5.17
603,99,0.91,101,−1,Cc1ccsc1C(=O)N1CCC[C@H]1c1ccccc1-c1cccc(C(F)(F)F)c1 [ESC1002320],83.37,5.12
263,105,0.92,102,4,Cc1ccsc1C(=O)N1CCC[C@H]1c1ccccc1-c1cccc(Cl)c1 [ESC1002321],84.52,5.98
> 20000,41,–,–,–,Cc1ccsc1C(=O)N1CCC[C@H]1c1ccccc1-c1cccc(S(C)(=O)=O)c1 [ESC1002322],89.24,6.93
468,106,1.4,101,7,Cc1ccccc1-c1ccccc1[C@@H]1CCCN1C(=O)c1sccc1C [ESC1002323],96.19,5.03
